Experimental data published in patent CN110693875A, “一种预防或治疗性功能障碍的药物组合物及其用途” (Chengdu Baiyu Pharmaceutical Co Ltd, priority 2018, dated 2020).

What was measured:
[1] = test system: vascular ED rabbit model (血管性ED家兔模型); assay: Test example 1: mating test in vascular ED rabbits; type: in vivo, New Zealand white rabbit; details: alprostadil alone, intracavernosal; for sexual activity parameters overall vs model group: once daily 1 week
[2] = test system: aged rat ED model (老年性大鼠ED模型); assay: Test example 2: apomorphine-induced erection and electrically evoked erection in aged rats; type: in vivo, SD rat; details: alprostadil alone, intracavernosal, 14 days
[3] = test system: neurogenic ED rat model (神经性ED大鼠模型); assay: Test example 3: mating behaviour in rats with cavernous nerve injury; type: in vivo, SD rat; details: alprostadil alone, intracavernosal, 14 days
[4] = test system: patient with erectile dysfunction (勃起功能障碍); assay: Clinical observation 2: patient with erectile dysfunction and premature ejaculation; type: in vivo, human; details: oral sildenafil 3 months, before the combination
ED patient (ED) = assay: Clinical observation 1: ED patient, hypertension; type: in vivo, human; details: oral sildenafil 3 months, before the combination

CCCCC[C@H](O)/C=C/[C@H]1[C@H](O)CC(=O)[C@@H]1CCCCCCC(=O)O [前列地尔, (1R,2R,3R)-3-羟基2-[(E)-(3S)-3-羟基-1-辛烯基]-5-氧代环戊烷庚酸]
observed parameters vs control group ([1]; high dose 5μg/kg): 趋向于对照组 | sexual activity parameters overall vs model group ([1]; high dose 5μg/kg): 总体优于模型组 | sexual activity parameters overall vs model group ([1]; low dose 0.05μg/kg): 总体优于模型组 | sexual activity parameters overall vs model group ([2]; high dose 10μg/kg): 总体优于模型组 | sexual activity parameters overall vs model group ([2]; low dose, printed 0.02μg/kg): 总体优于模型组 | sexual activity parameters overall vs model group ([3]; high dose 10μg/kg): 总体优于模型组 | sexual activity parameters overall vs model group ([3]; low dose 0.1μg/kg): 总体优于模型组

CCCc1nn(C)c2c(=O)[nH]c(-c3cc(S(=O)(=O)N4CCN(C)CC4)ccc3OCC)nc12 [西地那非]
intercourse satisfaction [4]: 未得到提高 | overall satisfaction [4]: 略有下降 | IIEF-5 score after sildenafil ([4]; baseline 12): 12 | attempted intercourse with sufficient sexual stimulation (ED patient (ED)): 尝试性交失败 | IIEF-5 score after sildenafil (ED patient (ED); baseline 4): 5
